Bridge positions count the residues as written; N and C are the ends. Square brackets hold non-standard residues; d marks the D form. Peptide text beside a SMILES is read from it. * marks the point of attachment. Bip = N[C@@H](Cc1ccc(-c2ccccc2)cc1)C(=O)O; Phe(3-Me) = Cc1cccc(C[C@H](N)C(=O)O)c1; 4Pal = N[C@@H](Cc1ccncc1)C(=O)O; Cha = N[C@@H](CC1CCCCC1)C(=O)O; Carboxymethyl = O=C(O)C*; Orn = NCCC[C@H](N)C(=O)O; Aun = NCCCCCCCCCCC(=O)O; Dab = NCC[C@H](N)C(=O)O; Dap = NC[C@H](N)C(=O)O; AEEA = NCCOCCOCC(=O)O

The target of this experiment is T1, PD-1/PD-L1 interaction (PE-labeled human PD-L1-Ig binding to Jurkat cell line over-expressing human PD-1) (Homo sapiens, UniProt Q15116).
T1 construct: expressed in transfected cells; host or cells: Jurkat
T1 sequence (Q15116 25-288): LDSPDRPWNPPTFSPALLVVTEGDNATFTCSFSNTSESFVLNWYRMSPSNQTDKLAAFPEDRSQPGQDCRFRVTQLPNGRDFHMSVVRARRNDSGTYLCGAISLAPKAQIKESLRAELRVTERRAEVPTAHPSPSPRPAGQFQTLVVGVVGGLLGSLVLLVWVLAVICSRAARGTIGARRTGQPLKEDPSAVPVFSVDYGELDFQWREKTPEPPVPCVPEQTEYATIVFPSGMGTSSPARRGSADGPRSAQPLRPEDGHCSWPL
In words: Jurkat-PD-1 Cell Binding High-Content Screening Assay (CBA). It counts as cell-based. Particulars: Jurkat cell line over-expressing human PD-1; PE-labeled PD-L1-Ig 20 nM final; read-out: Jurkat hPD1-PDL1 IC50. The method in brief:
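Read-out is high-content imaging of cell-bound phycoerythrin-tagged PD-L1-Ig on fixed, Hoechst-counterstained Jurkat cells that over-express human PD-1. Compound exposure lasts 2 h at 37° C before the labeled ligand (20 nM final) is added for a further hour.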
As a reminder, the IC50 is the concentration that inhibits the measured activity by half. In the case of `CC[C@H](C)[C@@H]1NC(=O)[C@H](Cc2ccc(-c3ccccc3)cc2)NC(=O)[C@H](C(C)C)NC(=O)[C@H](Cc2c[nH]c3ccccc23)NC(=O)[C@H](CC(=O)O)NC(=O)[C@H](Cc2ccc(OCC(=O)O)cc2)NC(=O)[C@H](Cc2ccncc2)NC(=O)CSC[C@@H](C(=O)N[C@@H](CCCN)C(=O)NCCOCCOCC(=O)NCCCCCCCCCCC(=O)O)NC(=O)[C@H]([C@@H](C)O)NC(=O)[C@H](C(C)C)NC(=O)[C@H](CC(C)C)NC(=O)[C@H](CCN)NC(=O)[C@@H](CC(C)C)NC(=O)[C@H](CCCN)NC1=O` [Compound 1159] ({CH2CO}-[4Pal]Y(Carboxymethyl)DWV[Bip]I[Orn][dL][Dab]LVTC[Orn][AEEA][Aun]-OH; thioether N-14), the IC50 amounted to 33.4 nM.
The same measure for `CC[C@H](C)[C@@H]1NC(=O)[C@H](Cc2ccc(-c3ccccc3)cc2)NC(=O)[C@H](C(C)C)NC(=O)[C@H](Cc2c[nH]c3ccccc23)NC(=O)[C@H](CC(=O)O)NC(=O)[C@H](Cc2ccc(OCC(=O)O)cc2)NC(=O)[C@H](Cc2ccncc2)NC(=O)CSC[C@@H](C(=O)N[C@@H](CCCCN)C(=O)NCCOCCOCC(=O)NCCCCCCCCCCC(=O)O)NC(=O)[C@H]([C@@H](C)O)NC(=O)[C@H](C(C)C)NC(=O)[C@H](CC(C)C)NC(=O)[C@H](CCN)NC(=O)[C@@H](CC(C)C)NC(=O)[C@H](CCCN)NC1=O` [Compound 1160] ({CH2CO}-[4Pal]Y(Carboxymethyl)DWV[Bip]I[Orn][dL][Dab]LVTCK[AEEA][Aun]-OH; thioether N-14): 21 nM; for `CC[C@H](C)[C@@H]1NC(=O)[C@H](Cc2ccc(-c3ccccc3)cc2)NC(=O)[C@H](C(C)C)NC(=O)[C@H](Cc2c[nH]c3ccccc23)NC(=O)[C@H](CC(=O)O)NC(=O)[C@H](Cc2ccc(OCC(=O)O)cc2)NC(=O)[C@H](Cc2ccncc2)NC(=O)CSC[C@@H](C(=O)N[C@@H](CCCNC(=N)N)C(=O)NCCOCCOCC(=O)NCCCCCCCCCCC(=O)O)NC(=O)[C@H]([C@@H](C)O)NC(=O)[C@H](C(C)C)NC(=O)[C@H](CC(C)C)NC(=O)[C@H](CCN)NC(=O)[C@@H](CC(C)C)NC(=O)[C@H](CCCN)NC1=O` [Compound 1161] ({CH2CO}-[4Pal]Y(Carboxymethyl)DWV[Bip]I[Orn][dL][Dab]LVTCR[AEEA][Aun]-OH; thioether N-14): 25.3 nM.
Take `Cc1cccc(C[C@@H]2NC(=O)[C@H](CC(=O)O)NC(=O)[C@H](Cc3ccncc3)NC(=O)[C@H](Cc3ccc(OCC(=O)O)cc3)NC(=O)CSC[C@@H](C(=O)NCCOCCOCC(=O)NCCCCCCCCCCC(=O)O)NC(=O)[C@H]([C@@H](C)O)NC(=O)[C@H](C(C)C)NC(=O)[C@H](CC3CCCCC3)NC(=O)[C@H](CCN)NC(=O)[C@@H](CC(C)C)NC(=O)[C@H](CCCN)NC(=O)[C@H](C(C)C)NC(=O)[C@H](Cc3ccc(-c4ccccc4)cc3)NC(=O)[C@H](C(C)C)NC2=O)c1` [Compound 1162] ({CH2CO}-Y(Carboxymethyl)[4Pal]D[Phe(3-Me)]V[Bip]V[Orn][dL][Dab][Cha]VTC[AEEA][Aun]-OH; thioether N-14): the IC50 amounted to 20.8 nM.
As to `Cc1cccc(C[C@@H]2NC(=O)[C@H](CC(=O)O)NC(=O)[C@H](Cc3ccncc3)NC(=O)[C@H](Cc3ccc(OCC(=O)O)cc3)NC(=O)CSC[C@@H](C(=O)N[C@@H](CN)C(=O)NCCCCCCCCCCC(=O)O)NC(=O)[C@H]([C@@H](C)O)NC(=O)[C@H](C(C)C)NC(=O)[C@H](CC3CCCCC3)NC(=O)[C@H](CCN)NC(=O)[C@@H](CC(C)C)NC(=O)[C@H](CCCN)NC(=O)[C@H](C(C)C)NC(=O)[C@H](Cc3ccc(-c4ccccc4)cc3)NC(=O)[C@H](C(C)C)NC2=O)c1` [Compound 1163] ({CH2CO}-Y(Carboxymethyl)[4Pal]D[Phe(3-Me)]V[Bip]V[Orn][dL][Dab][Cha]VTC[Dap][Aun]-OH; thioether N-14), the IC50 was determined as 55.1 nM.
Regarding `Cc1cccc(C[C@@H]2NC(=O)[C@H](CC(=O)O)NC(=O)[C@H](Cc3ccncc3)NC(=O)[C@H](Cc3ccc(OCC(=O)O)cc3)NC(=O)CSC[C@@H](C(=O)N[C@@H](CCN)C(=O)NCCCCCCCCCCC(=O)O)NC(=O)[C@H]([C@@H](C)O)NC(=O)[C@H](C(C)C)NC(=O)[C@H](CC3CCCCC3)NC(=O)[C@H](CCN)NC(=O)[C@@H](CC(C)C)NC(=O)[C@H](CCCN)NC(=O)[C@H](C(C)C)NC(=O)[C@H](Cc3ccc(-c4ccccc4)cc3)NC(=O)[C@H](C(C)C)NC2=O)c1` [Compound 1164] ({CH2CO}-Y(Carboxymethyl)[4Pal]D[Phe(3-Me)]V[Bip]V[Orn][dL][Dab][Cha]VTC[Dab][Aun]-OH; thioether N-14), the IC50 came to 122 nM.
Turning to `Cc1cccc(C[C@@H]2NC(=O)[C@H](CC(=O)O)NC(=O)[C@H](Cc3ccncc3)NC(=O)[C@H](Cc3ccc(OCC(=O)O)cc3)NC(=O)CSC[C@@H](C(=O)N[C@@H](CCCN)C(=O)NCCCCCCCCCCC(=O)O)NC(=O)[C@H]([C@@H](C)O)NC(=O)[C@H](C(C)C)NC(=O)[C@H](CC3CCCCC3)NC(=O)[C@H](CCN)NC(=O)[C@@H](CC(C)C)NC(=O)[C@H](CCCN)NC(=O)[C@H](C(C)C)NC(=O)[C@H](Cc3ccc(-c4ccccc4)cc3)NC(=O)[C@H](C(C)C)NC2=O)c1` [Compound 1165] ({CH2CO}-Y(Carboxymethyl)[4Pal]D[Phe(3-Me)]V[Bip]V[Orn][dL][Dab][Cha]VTC[Orn][Aun]-OH; thioether N-14), the IC50 was determined as 104 nM.
For the molecule `Cc1cccc(C[C@@H]2NC(=O)[C@H](CC(=O)O)NC(=O)[C@H](Cc3ccncc3)NC(=O)[C@H](Cc3ccc(OCC(=O)O)cc3)NC(=O)CSC[C@@H](C(=O)N[C@@H](CCCCN)C(=O)NCCCCCCCCCCC(=O)O)NC(=O)[C@H]([C@@H](C)O)NC(=O)[C@H](C(C)C)NC(=O)[C@H](CC3CCCCC3)NC(=O)[C@H](CCN)NC(=O)[C@@H](CC(C)C)NC(=O)[C@H](CCCN)NC(=O)[C@H](C(C)C)NC(=O)[C@H](Cc3ccc(-c4ccccc4)cc3)NC(=O)[C@H](C(C)C)NC2=O)c1` [Compound 1166] ({CH2CO}-Y(Carboxymethyl)[4Pal]D[Phe(3-Me)]V[Bip]V[Orn][dL][Dab][Cha]VTCK[Aun]-OH; thioether N-14), the IC50 worked out at 28 nM.
In the case of `Cc1cccc(C[C@@H]2NC(=O)[C@H](CC(=O)O)NC(=O)[C@H](Cc3ccncc3)NC(=O)[C@H](Cc3ccc(OCC(=O)O)cc3)NC(=O)CSC[C@@H](C(=O)N[C@@H](CCCNC(=N)N)C(=O)NCCCCCCCCCCC(=O)O)NC(=O)[C@H]([C@@H](C)O)NC(=O)[C@H](C(C)C)NC(=O)[C@H](CC3CCCCC3)NC(=O)[C@H](CCN)NC(=O)[C@@H](CC(C)C)NC(=O)[C@H](CCCN)NC(=O)[C@H](C(C)C)NC(=O)[C@H](Cc3ccc(-c4ccccc4)cc3)NC(=O)[C@H](C(C)C)NC2=O)c1` [Compound 1167] ({CH2CO}-Y(Carboxymethyl)[4Pal]D[Phe(3-Me)]V[Bip]V[Orn][dL][Dab][Cha]VTCR[Aun]-OH; thioether N-14), the IC50 was determined as 80.1 nM.
The same measure for `Cc1cccc(C[C@@H]2NC(=O)[C@H](CC(=O)O)NC(=O)[C@H](Cc3ccncc3)NC(=O)[C@H](Cc3ccc(OCC(=O)O)cc3)NC(=O)CSC[C@@H](C(=O)N[C@@H](Cc3cnc[nH]3)C(=O)NCCCCCCCCCCC(=O)O)NC(=O)[C@H]([C@@H](C)O)NC(=O)[C@H](C(C)C)NC(=O)[C@H](CC3CCCCC3)NC(=O)[C@H](CCN)NC(=O)[C@@H](CC(C)C)NC(=O)[C@H](CCCN)NC(=O)[C@H](C(C)C)NC(=O)[C@H](Cc3ccc(-c4ccccc4)cc3)NC(=O)[C@H](C(C)C)NC2=O)c1` [Compound 1168] ({CH2CO}-Y(Carboxymethyl)[4Pal]D[Phe(3-Me)]V[Bip]V[Orn][dL][Dab][Cha]VTCH[Aun]-OH; thioether N-14): 147 nM.

Values taken from patent publication US20260022142A1, “MACROCYCLIC IMMUNOMODULATORS” (Bristol-Myers Squibb Company, priority 2022, published 2026).
